# Measured values published in PubChem BioAssay (NCI).
#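 Method: 48-hour compound exposure of cells in 96-well plates, five concentrations, linear interpolation of endpoints. At the GI50, growth is halved. TGI denotes the concentration required for complete inhibition of growth.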
# Experiments:
# Assay in all cases: NCI tumour cell line growth inhibition, 48 h
# 786-0 renal = system: 786-0 renal
# A498 renal = system: A498 renal
# A549 NSCLC = system: A549 NSCLC
# ACHN renal = system: ACHN renal
# BT-549 breast = system: BT-549 breast
# CAKI-1 renal = system: CAKI-1 renal
# CCRF-CEM leukemia = system: CCRF-CEM leukemia
# COLO 205 colon = system: COLO 205 colon
# DU-145 prostate = system: DU-145 prostate
# EKVX NSCLC = system: EKVX NSCLC
# HCC-2998 colon = system: HCC-2998 colon
# HCT-116 colon = system: HCT-116 colon
# HCT-15 colon = system: HCT-15 colon
# HL-60(TB) leukemia = system: HL-60(TB) leukemia
# HOP-62 NSCLC = system: HOP-62 NSCLC
# HOP-92 NSCLC = system: HOP-92 NSCLC
# HS 578T breast = system: HS 578T breast
# HT29 colon = system: HT29 colon
# IGROV1 ovarian = system: IGROV1 ovarian
# K-562 leukemia = system: K-562 leukemia
# KM12 colon = system: KM12 colon
# LOX IMVI melanoma = system: LOX IMVI melanoma
# M14 melanoma = system: M14 melanoma
# MALME-3M melanoma = system: MALME-3M melanoma
# MCF7 breast = system: MCF7 breast
# MDA-MB-231 breast = system: MDA-MB-231 breast
# MDA-MB-435 = system: MDA-MB-435
# MDA-MB-468 breast = system: MDA-MB-468 breast
# MOLT-4 leukemia = system: MOLT-4 leukemia
# NCI-H226 lung = system: NCI-H226 lung
# NCI-H23 lung = system: NCI-H23 lung
# NCI-H460 lung = system: NCI-H460 lung
# NCI-H522 lung = system: NCI-H522 lung
# NCI/ADR-RES ovarian = system: NCI/ADR-RES ovarian
# OVCAR-3 ovarian = system: OVCAR-3 ovarian
# OVCAR-4 ovarian = system: OVCAR-4 ovarian
# OVCAR-5 ovarian = system: OVCAR-5 ovarian
# OVCAR-8 ovarian = system: OVCAR-8 ovarian
# PC-3 prostate = system: PC-3 prostate
# RPMI-8226 leukemia = system: RPMI-8226 leukemia
# RXF 393 renal = system: RXF 393 renal
# SF-268 CNS = system: SF-268 CNS
# SF-295 CNS = system: SF-295 CNS
# SF-539 CNS = system: SF-539 CNS
# SK-MEL-2 melanoma = system: SK-MEL-2 melanoma
# SK-MEL-28 melanoma = system: SK-MEL-28 melanoma
# SK-MEL-5 melanoma = system: SK-MEL-5 melanoma
# SK-OV-3 ovarian = system: SK-OV-3 ovarian
# SN12C renal = system: SN12C renal
# SNB-19 CNS = system: SNB-19 CNS
# SNB-75 CNS = system: SNB-75 CNS
# SR leukemia = system: SR leukemia
# SW-620 colon = system: SW-620 colon
# T-47D breast = system: T-47D breast
# TK-10 renal = system: TK-10 renal
# U251 CNS = system: U251 CNS
# UACC-257 melanoma = system: UACC-257 melanoma
# UACC-62 melanoma = system: UACC-62 melanoma
# UO-31 renal = system: UO-31 renal
structure (smiles),measurement,setting,value
COc1cc2c3c(n(CCCNCCO)c(=O)c2cc1OC)-c1nc2c(cc1C3=O)OCO2,GI50,786-0 renal,2.43 µM
same,TGI,786-0 renal,11.8 µM
same,GI50,A498 renal,13.4 µM
same,TGI,A498 renal,27.2 µM
same,GI50,A549 NSCLC,6.72 µM
same,TGI,A549 NSCLC,21.6 µM
same,GI50,ACHN renal,3.46 µM
same,TGI,ACHN renal,14 µM
same,GI50,BT-549 breast,6.31 µM
same,TGI,BT-549 breast,20.5 µM
same,GI50,CAKI-1 renal,2.39 µM
same,TGI,CAKI-1 renal,16.5 µM
same,GI50,CCRF-CEM leukemia,0.262 µM
same,TGI,CCRF-CEM leukemia,1.86 µM
same,GI50,COLO 205 colon,5.88 µM
same,TGI,COLO 205 colon,21.9 µM
same,GI50,DU-145 prostate,2.71 µM
same,TGI,DU-145 prostate,14.1 µM
same,GI50,EKVX NSCLC,7.47 µM
same,TGI,EKVX NSCLC,21.2 µM
same,GI50,HCC-2998 colon,2.14 µM
same,TGI,HCC-2998 colon,13.2 µM
same,GI50,HCT-116 colon,1.25 µM
same,TGI,HCT-116 colon,2.67 µM
same,GI50,HCT-15 colon,9.17 µM
same,TGI,HCT-15 colon,27.9 µM
same,GI50,HL-60(TB) leukemia,0.64 µM
same,TGI,HL-60(TB) leukemia,12.2 µM
same,GI50,HOP-62 NSCLC,0.416 µM
same,TGI,HOP-62 NSCLC,4.48 µM
same,GI50,HOP-92 NSCLC,9.2 µM
same,TGI,HOP-92 NSCLC,23.3 µM
same,GI50,HS 578T breast,11.6 µM
same,TGI,HS 578T breast,31.6 µM
same,GI50,HT29 colon,2.69 µM
same,TGI,HT29 colon,11.3 µM
same,GI50,IGROV1 ovarian,11.4 µM
same,TGI,IGROV1 ovarian,26.2 µM
same,GI50,K-562 leukemia,1.56 µM
same,TGI,K-562 leukemia,15 µM
same,GI50,KM12 colon,14.2 µM
same,TGI,KM12 colon,33.2 µM
same,GI50,LOX IMVI melanoma,0.534 µM
same,TGI,LOX IMVI melanoma,1.98 µM
same,GI50,M14 melanoma,4.35 µM
same,TGI,M14 melanoma,16.8 µM
same,GI50,MALME-3M melanoma,5.08 µM
same,TGI,MALME-3M melanoma,19.6 µM
same,GI50,MCF7 breast,0.256 µM
same,TGI,MCF7 breast,8.62 µM
same,GI50,MDA-MB-231 breast,11.3 µM
same,TGI,MDA-MB-231 breast,24.5 µM
same,GI50,MDA-MB-435,8.89 µM
same,TGI,MDA-MB-435,22.5 µM
same,GI50,MDA-MB-468 breast,1.41 µM
same,TGI,MDA-MB-468 breast,3.21 µM
same,GI50,MOLT-4 leukemia,0.364 µM
same,TGI,MOLT-4 leukemia,34.8 µM
same,GI50,NCI-H226 lung,1.54 µM
same,TGI,NCI-H226 lung,6.62 µM
same,GI50,NCI-H23 lung,0.582 µM
same,TGI,NCI-H23 lung,3.27 µM
same,GI50,NCI-H460 lung,1.22 µM
same,TGI,NCI-H460 lung,11.8 µM
same,GI50,NCI-H522 lung,0.886 µM
same,TGI,NCI-H522 lung,3.04 µM
same,GI50,NCI/ADR-RES ovarian,58.1 µM
same,TGI,NCI/ADR-RES ovarian,> 100 µM
same,GI50,OVCAR-3 ovarian,5.65 µM
same,TGI,OVCAR-3 ovarian,20.8 µM
same,GI50,OVCAR-4 ovarian,13 µM
same,TGI,OVCAR-4 ovarian,49.5 µM
same,GI50,OVCAR-5 ovarian,4.39 µM
same,TGI,OVCAR-5 ovarian,15.4 µM
same,GI50,OVCAR-8 ovarian,3.61 µM
same,TGI,OVCAR-8 ovarian,17.9 µM
same,GI50,PC-3 prostate,3.06 µM
same,TGI,PC-3 prostate,19.1 µM
same,GI50,RPMI-8226 leukemia,2.54 µM
same,TGI,RPMI-8226 leukemia,14.8 µM
same,GI50,RXF 393 renal,1.83 µM
same,TGI,RXF 393 renal,7.21 µM
same,GI50,SF-268 CNS,3.24 µM
same,TGI,SF-268 CNS,19.9 µM
same,GI50,SF-295 CNS,0.702 µM
same,TGI,SF-295 CNS,12 µM
same,GI50,SF-539 CNS,0.996 µM
same,TGI,SF-539 CNS,3.24 µM
same,GI50,SK-MEL-2 melanoma,17.7 µM
same,TGI,SK-MEL-2 melanoma,33 µM
same,GI50,SK-MEL-28 melanoma,13.5 µM
same,TGI,SK-MEL-28 melanoma,26.9 µM
same,GI50,SK-MEL-5 melanoma,1.54 µM
same,TGI,SK-MEL-5 melanoma,10.5 µM
same,GI50,SK-OV-3 ovarian,3.27 µM
same,TGI,SK-OV-3 ovarian,12.4 µM
same,GI50,SN12C renal,3.94 µM
same,TGI,SN12C renal,16.4 µM
same,GI50,SNB-19 CNS,2.52 µM
same,TGI,SNB-19 CNS,14.6 µM
same,GI50,SNB-75 CNS,0.83 µM
same,TGI,SNB-75 CNS,28.2 µM
same,GI50,SR leukemia,0.624 µM
same,TGI,SR leukemia,11.3 µM
same,GI50,SW-620 colon,2.01 µM
same,TGI,SW-620 colon,16.8 µM
same,GI50,T-47D breast,1.13 µM
same,TGI,T-47D breast,12.9 µM
same,GI50,TK-10 renal,19 µM
same,TGI,TK-10 renal,46 µM
same,GI50,U251 CNS,0.82 µM
same,TGI,U251 CNS,10.7 µM
same,GI50,UACC-257 melanoma,15.4 µM
same,TGI,UACC-257 melanoma,31.2 µM
same,GI50,UACC-62 melanoma,2.38 µM
same,TGI,UACC-62 melanoma,12.8 µM
same,GI50,UO-31 renal,7.47 µM
same,TGI,UO-31 renal,21.7 µM
